In patent publication US7772271B2 (priority 2004, dated 2010):

Work on Cc1cc(Cl)ccc1Nc1ccc(-c2c(C#N)c3ccc(OC4CCOCC4)cc3n2C2CCC2)cc1 [Compound 3161] yielded a melting point of 174 to 179 °C. With CC(=O)c1cccc(Nc2ccc(-c3c(C#N)c4ccc(OC5CCOCC5)cc4n3C3CCC3)cc2)c1 [Compound 3162] the melting point was 148 to 152 °C. For N#Cc1c(-c2ccc(Nc3ccccn3)cc2)n(C2CCC2)c2cc(OC3CCOCC3)ccc12 [Compound 3163], the melting point was 211 to 212 °C. Compound N#Cc1c(-c2ccc(Nc3cccnc3)cc2)n(C2CCC2)c2cc(OC3CCOCC3)ccc12 [Compound 3165] has a melting point of 210 to 212 °C. For N#Cc1c(-c2ccc(Nc3ncccn3)cc2)n(C2CCC2)c2cc(OC3CCOCC3)ccc12 [Compound 3166], the melting point was 209 to 213 °C. N#Cc1c(-c2ccc(Oc3ncccn3)cc2)n(C2CCC2)c2cc(OC3CCOCC3)ccc12 [Compound 3167] showed a melting point of 168 to 169 °C. N#Cc1c(-c2ccc(Oc3cnccn3)cc2)n(C2CCC2)c2cc(OC3CCOCC3)ccc12 [Compound 3168] gave a melting point of 167 to 170 °C. With N#Cc1c(-c2ccc(Oc3ccccn3)cc2)n(C2CCC2)c2cc(OC3CCOCC3)ccc12 [Compound 3169] the melting point was 147 to 149 °C. CCNC(=O)Oc1ccc2c(C#N)c(-c3ccc(NC(=O)O[C@H](C)C4CC4)cc3)n(C3CCC3)c2c1 [Compound 3170] gave a melting point of 192 to 194 °C. In the case of C[C@@H](OC(=O)Nc1ccc(-c2c(C#N)c3ccc(OC(=O)NC4CCCCC4)cc3n2C2CCC2)cc1)C1CC1 [Compound 3172], the melting point is reported as 213 to 216 °C. C[C@@H](OC(=O)Nc1ccc(-c2c(C#N)c3ccc(OC(=O)NCCc4ccccc4)cc3n2C2CCC2)cc1)C1CC1 [Compound 3173] gave a melting point of 203 to 206 °C. With CC(C)NC(=O)Oc1ccc2c(C#N)c(-c3ccc(NC(=O)O[C@H](C)C4CC4)cc3)n(C3CCC3)c2c1 [Compound 3174] the melting point was 202 to 205 °C. Work on CC(C)(C)OC(=O)NS(=O)(=O)Nc1ccc(-c2c(C#N)c3ccc(N4CCOCC4)cc3n2C2CC2)cc1 [Compound 3175] yielded a melting point of 171 to 175 °C. Compound N#C/N=C(/Nc1ccc(-c2c(C#N)c3ccc(OC4CCOCC4)cc3n2C2CCC2)cc1)NC1CCCCC1 [Compound 3176] has a melting point of 209 to 211 °C. For N#Cc1c(-c2ccc(Nc3nc(C(F)(F)F)cs3)cc2)n(C2CCC2)c2cc(OC3CCOCC3)ccc12 [Compound 3177], the melting point was 250 to 252 °C. In the case of CC(C)n1c(-c2ccc(NS(=O)(=O)Cc3ccc(C(F)(F)F)cc3)cc2)c(C#N)c2ccc(OC(F)F)cc21 [Compound 3178], the melting point is reported as 224 to 225 °C. For CC(C)(C)c1csc(Nc2ccc(-c3c(C#N)c4ccc(Oc5ncccn5)cc4n3C3CCC3)cc2)n1 [Compound 3179], the melting point was 240 to 241 °C. With CCCS(=O)(=O)Nc1ccc(-c2c(C#N)c3ccc(Oc4nccnc4C#N)cc3n2C2CCC2)cc1 [Compound 3181] the melting point was 218 to 220 °C. Work on CCS(=O)(=O)Nc1ccc(-c2c(C#N)c3ccc(OC4CCS(=O)(=O)CC4)cc3n2C2CCC2)cc1 [Compound 3184] yielded a melting point of 259 to 264 °C. In the case of N#Cc1c(-c2ccc(NS(=O)(=O)C3CC3)cc2)n(C2CCC2)c2cc(OC3CCS(=O)(=O)CC3)ccc12 [Compound 3185], the melting point is reported as 279 to 285 °C. C[C@@H](OC(=O)Nc1ccc(-c2c(C#N)c3ccc(OC4CCS(=O)(=O)CC4)cc3n2C2CCC2)cc1)C1CC1 [Compound 3186] showed a melting point of 226 to 231 °C. Compound C[C@@H](OC(=O)Nc1ccc(-c2c(C#N)c3ccc(OC4CCS(=O)(=O)CC4)cc3n2C2CCC2)cc1)C(F)(F)F [Compound 3187] has a melting point of 243 to 249 °C. With N#Cc1c(-c2ccc(N(CCF)c3nc(C(F)(F)F)cs3)cc2)n(C2CCC2)c2cc(OCCF)ccc12 [Compound 3188] the melting point was 137 to 138 °C. Compound N#Cc1c(-c2ccc(Nc3nc(C(F)(F)F)cs3)cc2)n(C2CCC2)c2cc(Oc3ncccn3)ccc12 [Compound 3189] has a melting point of 241 to 245 °C. C[C@@H](OC(=O)Nc1ccc(-c2c(C#N)c3ccc(Oc4nccnc4C#N)cc3n2C2CCC2)cc1)C1CC1 [Compound 3191] gave a melting point of 227 to 229 °C. In the case of CCn1c(-c2ccc(N3CCCS3(=O)=O)cc2)c(C#N)c2ccc(Oc3nccnc3C#N)cc21 [Compound 3196], the melting point is reported as 232 to 236 °C. Compound CCCS(=O)(=O)Nc1ccc(-c2c(C#N)c3ccc(N4CCCC4=O)cc3n2C2CCC2)cc1 [Compound 3198] has a melting point of 279 to 282 °C. With C[C@@H](OC(=O)Nc1ccc(-c2c(C#N)c3ccc(OC4CCS(=O)(=O)CC4)cc3n2C2CC2)cc1)C1CC1 [Compound 3199] the melting point was 205 to 210 °C. Compound CCCS(=O)(=O)Nc1ccc(-c2c(C#N)c3ccc(Oc4ncccc4C(F)(F)F)cc3n2C2CCC2)cc1 [Compound 3201] has a melting point of 181 to 184 °C. CCCS(=O)(=O)Nc1ccc(-c2c(C#N)c3ccc(-c4cnccc4OC)cc3n2C2CCC2)cc1 [Compound 3202] gave a melting point of 240 to 242 °C. For CCCS(=O)(=O)Nc1ccc(-c2c(C#N)c3ccc(-c4ccnn4C)cc3n2C2CCC2)cc1 [Compound 3203], the melting point was 241 to 242 °C. For Cc1csc(Nc2ccc(-c3c(C#N)c4ccc(OCCF)cc4n3C3CCC3)cc2)n1 [Compound 3205], the melting point was 199 to 201 °C. N#Cc1c(-c2ccc(Nc3nc(-c4ccc(F)cc4)cs3)cc2)n(C2CCC2)c2cc(OCCF)ccc12 [Compound 3206] showed a melting point of 234 to 236 °C. N#Cc1c(-c2ccc(Nc3nc(C(F)(F)F)cs3)cc2)n(C2CCC2)c2cc(OCCF)ccc12 [Compound 3207] showed a melting point of 116 to 118 °C. Work on N#Cc1nccnc1Oc1ccc2c(C#N)c(-c3ccc(NS(=O)(=O)NCC4CC4)cc3)n(C3CC3)c2c1 [Compound 3211] yielded a melting point of 189 to 191 °C. CC(C)Nc1ccc(-c2c(C#N)c3ccc(Oc4nccnc4C#N)cc3n2C2CC2)cc1 [Compound 3212] gave a melting point of 224 to 226 °C. Work on CC(C)Nc1ccc(-c2c(C#N)c3ccc(Oc4ncccc4C#N)cc3n2C2CC2)cc1 [Compound 3213] yielded a melting point of 195 to 197 °C. With CC(C)n1c(-c2ccc(N3CCCCS3(=O)=O)cc2)c(C#N)c2ccc(N3CCOCC3)cc21 [Compound 3215] the melting point was 260 to 271 °C. Work on N#Cc1c(-c2ccc(N3CCCCS3(=O)=O)cc2)n(C2CC2)c2cc(Oc3ncccn3)ccc12 [Compound 3216] yielded a melting point of 251 to 256 °C. Work on N#Cc1c(-c2ccc(N3CCCCS3(=O)=O)cc2)n(C2CCC2)c2cc(Oc3ncccn3)ccc12 [Compound 3217] yielded a melting point of 212 to 223 °C. N#Cc1c(-c2ccc(N3CCCCS3(=O)=O)cc2)n(C2CCC2)c2cc(OC3CCOCC3)ccc12 [Compound 3218] gave a melting point of 180 to 187 °C. For N#Cc1c(-c2ccc(N3CCCCS3(=O)=O)cc2)n(C2CCC2)c2cc(Oc3cnccn3)ccc12 [Compound 3220], the melting point was 187 to 196 °C. Work on CCOc1ccc2c(C#N)c(-c3ccc4c(c3)CCC(=O)N4)n(C3CCC3)c2c1 [Compound 3221] yielded a melting point of 249 to 250 °C. Work on CC1CCc2cc(-c3c(C#N)c4ccc(Oc5ncccn5)cc4n3C3CCC3)ccc2NC1=O (stereo not shown) [Compound 3222] yielded a melting point of 233 to 235 °C. Compound CCn1c(-c2ccc(N3CCCCCC3=O)cc2)c(C#N)c2ccc(OC(C)C)cc21 [Compound 3223] has a melting point of 250 to 251 °C. With CCCS(=O)(=O)Nc1ccc(-c2c(C#N)c3ccc(Oc4nccnc4C#N)cc3n2CC2CC2)cc1 [Compound 3224] the melting point was 178 to 180 °C.
